Measurements from PMC10253456, “Investigating the Contribution of Major Drug-Metabolising Enzymes to Possum-Specific Fertility Control” (International Journal of Molecular Sciences, 2023).
Where two headings read alike, the source gives them in different places.

Key:
UGT2B (heading: UGT2B4) [1] = test: p-nitrophenol glucuronidation activity in possum liver microsomes; format: biochemical, possum (Trichosurus vulpecula); conditions: possum (Trichosurus vulpecula), pH 7.4, compound at estimated IC50, read-out: % of control (UGT2B4 catalytic activity at IC50)
UGT2B [2] = test: as above; format: biochemical, possum (Trichosurus vulpecula); conditions: for p-nitrophenol glucuronidation (UGT2B) activity, % of the control: at estimated IC50 and 2-fold IC50 values
testosterone metabolism = system: testosterone metabolism; parameters: method as in PMID 19336903; conditions: pooled human liver microsomes; cited from earlier work
CYP3A [3] = test: CYP3A catalytic activity (erythromycin N-demethylation) in pooled human liver microsomes; conditions: for CYP3A catalytic activity, % of the control: at both estimated IC50 and 2-fold IC50 values (ketoconazole 2.5 and 5 µM)
CYP3A [4] = conditions: avian
UGT2B (heading: UGT2B4) [5] = test: in vitro; conditions: BALB/c, mouse, pH 7.4
UGT2B (heading: UGT2B4) [6] = test: in vitro; conditions: avian (mallards and a swan), pH 7.4
UGT2B [7] = conditions: avian
CYP3A [8] = test: CYP3A catalytic activity (erythromycin N-demethylation) in mouse liver microsomes; conditions: for Percent control catalytic activity at estimated IC50: compounds without reported IC50 at 1 µM; for CYP3A catalytic activity, % of the control: at both estimated IC50 and 2-fold IC50 values (ketoconazole 2.5 and 5 µM)
CYP3A [9] = test: CYP3A catalytic activity (erythromycin N-demethylation) in possum liver microsomes; conditions: for Percent control catalytic activity at estimated IC50: compounds without reported IC50 at 1 µM
UGT2B [10] = test: p-nitrophenol glucuronidation activity in mouse liver microsomes
mice = conditions: EE2 5 µg/kg/day; cited from earlier work
[11] = system: fathead minnows (Pimephales promelas); parameters: method as in PMID 17517636; conditions: EE2 5–6 ng/L; cited from earlier work
UGT2B [12] = test: p-nitrophenol glucuronidation activity in pooled human liver microsomes
[13] = system: erythromycin N-demethylation; parameters: method as in PMID 15342469; conditions: pooled human liver microsomes; read-out: concentration reducing erythromycin N-demethylation by ~50% of the control; cited from earlier work
[14] = system: cineole metabolism in wild possum liver microsomes; parameters: method as in PMID 12593759; conditions: 5 µM ketoconazole; cited from earlier work
CYP3A [15] = test: CYP3A catalytic activity with midazolam and triazolam as substrates; conditions: erythromycin vs midazolam and triazolam
[16] = compound at estimated 2-fold IC50
[17] = compound at estimated 2-fold IC50 (5 µM where none reported)
[18] = mouse liver microsomes, initial screen n=1
[19] = mouse, compound at estimated 2-fold IC50 (5 µM where none reported)
[20] = possum liver microsomes, initial screen n=1
[21] = possum, compound at estimated 2-fold IC50 (5 µM where none reported)
[22] = mouse, compound at estimated 2-fold IC50

## O=c1cc(-c2ccccc2)oc2cc(O)ccc12 [7-Hydroxyflavone]
UGT2B (heading: UGT2B4) [1]
  activity at 30 min: 100%
UGT2B [2]; [16]
  % of control (UGT2B4 catalytic activity at 2-fold IC50): 101 % of control
  UGT2B4 catalytic activity at 2-fold IC50: 3.92 ± 0.02 µmol/mg/min
Testosterone metabolism
  IC50: > 100000 nM
CYP3A [3]
  CYP3A catalytic activity, % of the control: > 83 % of the control
CYP3A [3]; [17]
  % of control (catalytic activity at 2-fold IC50): 95 % of control
  Catalytic activity at 2-fold IC50: 0.61 nmol/mg/min
CYP3A [4]; at both estimated IC50 and 2-fold IC50 values (or 1 and 5 µM)
  CYP3A catalytic activity, % of the control: > 83 % of the control
CYP3A [4]; [17]
  % of control (catalytic activity at 2-fold IC50): 103 % of control
  Catalytic activity at 2-fold IC50: 0.42 ± 0.07 nmol/mg/min
UGT2B (heading: UGT2B4) [5]
  activity: 100%
UGT2B (heading: UGT2B4) [6]
  activity at 30 min: 150%
UGT2B [7]; [16]
  % of control (UGT2B4 catalytic activity at 2-fold IC50): 92 % of control
  UGT2B4 catalytic activity at 2-fold IC50: 0.38 ± 0.12 µmol/mg/min
CYP3A [8]; [18]
  Percent control catalytic activity at estimated IC50: 97 percent control
CYP3A [8]; mouse liver microsomes, initial screen n=1, compounds without reported IC50 at 5 µM
  Percent control catalytic activity at estimated 2-fold IC50: 97 percent control
CYP3A [8]; mouse
  CYP3A catalytic activity, % of the control: > 83 % of the control
CYP3A [8]; [19]
  % of control (catalytic activity at 2-fold IC50): 90 % of control
  Catalytic activity at 2-fold IC50: 0.40 ± 0.04 nmol/mg/min
CYP3A [9]; [20]
  Percent control catalytic activity at estimated IC50: 81 percent control
CYP3A [9]; possum liver microsomes, initial screen n=1, compounds without reported IC50 at 5 µM
  Percent control catalytic activity at estimated 2-fold IC50: 78 percent control
CYP3A [9]; possum, at both estimated IC50 and 2-fold IC50 values (or 1 and 5 µM)
  CYP3A catalytic activity, % of the control: > 83 % of the control
CYP3A [9]; [21]
  % of control (catalytic activity at 2-fold IC50): 95 % of control
  Catalytic activity at 2-fold IC50: 0.38 ± 0.08 nmol/mg/min
CYP3A [9]; possum, mainly at 5 µM or an estimated 2-fold IC50, not significantly different
  reduced catalytic activity of possum CYP3A, % of the control: ~ 35 % of the control
UGT2B [10]; [22]
  % of control (UGT2B4 catalytic activity at 2-fold IC50): 101 % of control
  UGT2B4 catalytic activity at 2-fold IC50: 2.55 ± 0.18 µmol/mg/min

## C#C[C@]1(O)CC[C@H]2[C@@H]3CCc4cc(O)ccc4[C@H]3CC[C@@]21C [EE2, ethinylestradiol]
mice
  effect of developmental exposure on behaviour: behavioural masculinisation
[11]
  effect of exposure on fish: feminisation of male fathead minnows

## CC(=O)N1CCN(c2ccc(OCC3COC(Cn4ccnc4)(c4ccc(Cl)cc4Cl)O3)cc2)CC1 (stereo not drawn) [Ketoconazole]
UGT2B [2]
  p-nitrophenol glucuronidation (UGT2B) activity, % of the control: did not significantly reduce UGT2B activity to less than 50% of the control
UGT2B [2]; listed as ketoconazole
  p-nitrophenol glucuronidation (UGT2B) activity, % of the control: > 65 % of the control
UGT2B [12]
  p-nitrophenol glucuronidation (UGT2B) activity, % of the control: did not significantly reduce UGT2B activity to less than 50% of the control
[13]
  IC50: 70 nM
CYP3A [3]
  CYP3A catalytic activity, % of the control: 80 % of the control
UGT2B [7]; at estimated IC50 and 2-fold IC50 values
  p-nitrophenol glucuronidation (UGT2B) activity, % of the control: did not significantly reduce UGT2B activity to less than 50% of the control
CYP3A [8]; [18]
  Percent control catalytic activity at estimated IC50: 78 percent control
CYP3A [8]; mouse
  CYP3A catalytic activity, % of the control: < 50 % of the control
CYP3A [9]; [20]
  Percent control catalytic activity at estimated IC50: 76 percent control
CYP3A [9]; possum, ketoconazole 5 µM, not statistically significant
  reduction of catalytic activity of possum CYP3A compared to the control: approximately 27%
UGT2B [10]
  p-nitrophenol glucuronidation (UGT2B) activity, % of the control: did not significantly reduce UGT2B activity to less than 50% of the control
[14]
  formation of all hydroxycineole metabolites (9-, 3-, 7-hydroxycineole), % of the control: approximately 25 % of the control
CYP3A [15]
  change in the inhibition of the CYP3A enzyme due to substrate choice (present study vs reported study): > 100 fold
